How the values were obtained:
[1] = target: Serine/threonine-protein kinase Nek7 (Homo sapiens) (UniProt Q8TDX7); details: Compound concentration 1000.0 nM
[2] = target: Dual specificity protein kinase CLK2 (Homo sapiens) (UniProt P49760); details: Compound concentration 1000.0 nM
[3] = target: Receptor tyrosine-protein kinase erbB-4 (Homo sapiens) (UniProt Q15303); details: Compound concentration 1000.0 nM
[4] = target: Activin receptor type-2A (Homo sapiens) (UniProt P27037); details: Compound concentration 1000.0 nM
[5] = target: Tyrosine-protein kinase FRK (Homo sapiens) (UniProt P42685); details: Compound concentration 1000.0 nM
[6] = target: Serine/threonine-protein kinase 32C (Homo sapiens) (UniProt Q86UX6); details: Compound concentration 1000.0 nM
[7] = target: Cyclin-dependent kinase-like 1 (Homo sapiens) (UniProt Q00532); details: Compound concentration 1000.0 nM
[8] = target: Myosin light chain kinase (Homo sapiens) (UniProt Q32MK0); details: Compound concentration 1000.0 nM
[9] = target: cGMP-dependent protein kinase 2 (Homo sapiens) (UniProt Q13237); details: Compound concentration 1000.0 nM
[10] = target: STE20/SPS1-related proline-alanine-rich protein kinase (Homo sapiens) (UniProt Q9UEW8); details: Compound concentration 1000.0 nM
[11] = target: Cyclin-dependent kinase-like 5 (Homo sapiens) (UniProt O76039); details: Compound concentration 1000.0 nM
[12] = target: Ribosomal protein S6 kinase alpha-5 (Homo sapiens) (UniProt O75582); details: Compound concentration 1000.0 nM
[13] = target: Muscle, skeletal receptor tyrosine-protein kinase (Homo sapiens) (UniProt O15146); details: Compound concentration 1000.0 nM
[14] = target: Tyrosine-protein kinase JAK3 (Homo sapiens) (UniProt P52333); details: Compound concentration 1000.0 nM
[15] = target: Sodium-dependent dopamine transporter (Homo sapiens) (UniProt Q01959); details: Compound concentration 10.0 uM
Chain of Sodium-dependent dopamine transporter (Homo sapiens) (Q01959 whole entry): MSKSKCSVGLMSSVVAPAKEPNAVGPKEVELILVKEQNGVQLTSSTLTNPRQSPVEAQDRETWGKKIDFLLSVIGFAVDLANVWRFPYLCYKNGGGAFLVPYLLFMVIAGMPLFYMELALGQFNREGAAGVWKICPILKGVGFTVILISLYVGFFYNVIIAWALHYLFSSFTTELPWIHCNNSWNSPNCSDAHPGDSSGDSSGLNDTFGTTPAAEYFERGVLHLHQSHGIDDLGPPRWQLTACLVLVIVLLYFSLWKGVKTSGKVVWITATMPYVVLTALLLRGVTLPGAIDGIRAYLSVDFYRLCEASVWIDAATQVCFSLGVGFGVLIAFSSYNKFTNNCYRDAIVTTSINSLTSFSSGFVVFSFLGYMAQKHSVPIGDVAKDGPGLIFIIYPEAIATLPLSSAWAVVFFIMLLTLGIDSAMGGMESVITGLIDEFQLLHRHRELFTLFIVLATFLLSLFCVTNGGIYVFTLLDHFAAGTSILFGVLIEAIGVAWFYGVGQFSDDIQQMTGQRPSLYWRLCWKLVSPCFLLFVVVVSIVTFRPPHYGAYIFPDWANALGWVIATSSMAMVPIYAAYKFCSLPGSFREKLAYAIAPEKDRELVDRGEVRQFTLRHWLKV

[16] = target: Dual specificity tyrosine-phosphorylation-regulated kinase 1A (Homo sapiens) (UniProt Q13627); details: Compound concentration 1000.0 nM
[17] = target: Serine/threonine-protein kinase WNK1 (Homo sapiens) (UniProt Q9H4A3); details: Compound concentration 1000.0 nM
[18] = target: 5-hydroxytryptamine receptor 2C (Homo sapiens) (UniProt P28335); details: Compound concentration 10.0 uM
[19] = target: Serine/threonine-protein kinase Sgk3 (Homo sapiens) (UniProt Q96BR1); details: Compound concentration 1000.0 nM
[20] = target: Serine/threonine-protein kinase 17A (Homo sapiens) (UniProt Q9UEE5); details: Compound concentration 1000.0 nM
[21] = target: Membrane-associated tyrosine- and threonine-specific cdc2-inhibitory kinase (Homo sapiens) (UniProt Q99640); details: Compound concentration 1000.0 nM
Chain of Membrane-associated tyrosine- and threonine-specific cdc2-inhibitory kinase (Homo sapiens) (Q99640 whole entry): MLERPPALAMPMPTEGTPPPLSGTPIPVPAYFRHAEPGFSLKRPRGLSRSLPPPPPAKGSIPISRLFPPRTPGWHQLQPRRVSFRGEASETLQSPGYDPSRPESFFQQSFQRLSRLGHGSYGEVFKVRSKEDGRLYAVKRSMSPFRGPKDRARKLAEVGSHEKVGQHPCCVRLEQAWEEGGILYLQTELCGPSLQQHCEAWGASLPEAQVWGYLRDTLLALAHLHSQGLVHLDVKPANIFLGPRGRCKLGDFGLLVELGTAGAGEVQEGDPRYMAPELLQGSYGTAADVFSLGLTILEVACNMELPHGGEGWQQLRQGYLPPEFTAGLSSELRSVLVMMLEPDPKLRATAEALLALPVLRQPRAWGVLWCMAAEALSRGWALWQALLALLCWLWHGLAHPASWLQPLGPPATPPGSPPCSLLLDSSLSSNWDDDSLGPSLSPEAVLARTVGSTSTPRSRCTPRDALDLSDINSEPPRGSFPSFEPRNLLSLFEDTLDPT

[22] = target: Alpha-1D adrenergic receptor (Homo sapiens) (UniProt P25100); details: Compound concentration 10.0 uM
[23] = target: Muscarinic acetylcholine receptor M5 (Homo sapiens) (UniProt P08912); details: Compound concentration 10.0 uM
Chain of Muscarinic acetylcholine receptor M5 (Homo sapiens) (P08912 whole entry, canonical isoform): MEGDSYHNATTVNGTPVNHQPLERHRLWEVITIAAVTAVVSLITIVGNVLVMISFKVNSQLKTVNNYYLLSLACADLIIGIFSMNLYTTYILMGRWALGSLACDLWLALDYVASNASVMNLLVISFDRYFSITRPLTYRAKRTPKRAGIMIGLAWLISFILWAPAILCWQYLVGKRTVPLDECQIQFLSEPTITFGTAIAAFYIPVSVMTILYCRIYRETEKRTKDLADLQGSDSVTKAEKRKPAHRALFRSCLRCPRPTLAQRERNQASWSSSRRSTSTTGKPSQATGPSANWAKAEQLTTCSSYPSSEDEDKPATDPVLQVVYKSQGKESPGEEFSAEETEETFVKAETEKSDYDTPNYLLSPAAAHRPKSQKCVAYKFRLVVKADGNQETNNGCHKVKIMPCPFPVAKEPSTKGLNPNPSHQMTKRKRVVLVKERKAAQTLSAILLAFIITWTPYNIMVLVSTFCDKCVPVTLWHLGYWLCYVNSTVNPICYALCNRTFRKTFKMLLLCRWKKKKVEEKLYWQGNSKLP

[24] = test system: Phosphatidylinositol 4,5-bisphosphate 3-kinase catalytic subunit alpha isoform (Homo sapiens), P42336 [E545A]; details: Compound concentration 1000.0 nM
[25] = target: Ephrin type-B receptor 3 (Homo sapiens) (UniProt P54753); details: Compound concentration 1000.0 nM
[26] = target: Serine/threonine-protein kinase Nek3 (Homo sapiens) (UniProt P51956); details: Compound concentration 1000.0 nM
[27] = target: Mitogen-activated protein kinase 11 (Homo sapiens) (UniProt Q15759); details: Compound concentration 1000.0 nM
[28] = test system: Tyrosine-protein kinase ABL1 (Homo sapiens), P00519 [F317L]; details: Compound concentration 1000.0 nM
[29] = target: Phosphatidylinositol 5-phosphate 4-kinase type-2 gamma (Homo sapiens) (UniProt Q8TBX8); details: Compound concentration 1000.0 nM
[30] = target: Cyclin-dependent kinase 4 (Homo sapiens) (UniProt P11802); details: Compound concentration 1000.0 nM
[31] = target: Tyrosine-protein kinase Mer (Homo sapiens) (UniProt Q12866); details: Compound concentration 1000.0 nM
Chain of Tyrosine-protein kinase Mer (Homo sapiens) (Q12866 whole entry): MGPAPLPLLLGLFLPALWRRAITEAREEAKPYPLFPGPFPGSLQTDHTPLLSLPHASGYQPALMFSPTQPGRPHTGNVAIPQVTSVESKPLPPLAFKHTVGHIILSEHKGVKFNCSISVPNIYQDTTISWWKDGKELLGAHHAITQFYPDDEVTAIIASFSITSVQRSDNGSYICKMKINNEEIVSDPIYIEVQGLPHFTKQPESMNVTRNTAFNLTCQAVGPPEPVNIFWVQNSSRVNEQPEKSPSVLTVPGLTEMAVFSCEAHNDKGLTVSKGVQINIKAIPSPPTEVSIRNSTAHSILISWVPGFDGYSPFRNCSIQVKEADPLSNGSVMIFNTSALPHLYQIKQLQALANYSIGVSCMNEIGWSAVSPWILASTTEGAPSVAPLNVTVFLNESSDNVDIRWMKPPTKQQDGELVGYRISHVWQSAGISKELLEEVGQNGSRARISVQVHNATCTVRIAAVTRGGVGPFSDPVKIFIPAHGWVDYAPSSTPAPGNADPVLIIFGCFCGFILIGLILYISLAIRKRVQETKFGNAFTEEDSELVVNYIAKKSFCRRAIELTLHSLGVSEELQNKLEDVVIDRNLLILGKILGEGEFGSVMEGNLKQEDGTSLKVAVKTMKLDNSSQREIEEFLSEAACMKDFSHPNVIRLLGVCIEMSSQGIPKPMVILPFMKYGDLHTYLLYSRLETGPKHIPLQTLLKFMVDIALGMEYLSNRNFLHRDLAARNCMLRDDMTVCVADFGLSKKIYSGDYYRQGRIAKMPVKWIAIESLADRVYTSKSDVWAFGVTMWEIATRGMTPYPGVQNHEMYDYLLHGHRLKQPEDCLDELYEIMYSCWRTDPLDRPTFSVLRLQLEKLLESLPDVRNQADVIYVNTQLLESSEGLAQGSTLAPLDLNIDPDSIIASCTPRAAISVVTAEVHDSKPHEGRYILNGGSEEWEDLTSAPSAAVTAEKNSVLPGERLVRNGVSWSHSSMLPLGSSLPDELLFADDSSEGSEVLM

[32] = target: Cyclin-dependent kinase 7 (Homo sapiens) (UniProt P50613); details: Compound concentration 1000.0 nM
[33] = target: LIM domain kinase 2 (Homo sapiens) (UniProt P53671); details: Compound concentration 1000.0 nM
[34] = target: Ribosomal protein S6 kinase alpha-6 (Homo sapiens) (UniProt Q9UK32); details: Compound concentration 1000.0 nM
Rattus norvegicus = species on record: Rattus norvegicus; details: Compound concentration 10.0 uM
[35] = target: Serine/threonine-protein kinase TNNI3K (Homo sapiens) (UniProt Q59H18); details: Compound concentration 1000.0 nM
Chain of Serine/threonine-protein kinase TNNI3K (Homo sapiens) (Q59H18 whole entry): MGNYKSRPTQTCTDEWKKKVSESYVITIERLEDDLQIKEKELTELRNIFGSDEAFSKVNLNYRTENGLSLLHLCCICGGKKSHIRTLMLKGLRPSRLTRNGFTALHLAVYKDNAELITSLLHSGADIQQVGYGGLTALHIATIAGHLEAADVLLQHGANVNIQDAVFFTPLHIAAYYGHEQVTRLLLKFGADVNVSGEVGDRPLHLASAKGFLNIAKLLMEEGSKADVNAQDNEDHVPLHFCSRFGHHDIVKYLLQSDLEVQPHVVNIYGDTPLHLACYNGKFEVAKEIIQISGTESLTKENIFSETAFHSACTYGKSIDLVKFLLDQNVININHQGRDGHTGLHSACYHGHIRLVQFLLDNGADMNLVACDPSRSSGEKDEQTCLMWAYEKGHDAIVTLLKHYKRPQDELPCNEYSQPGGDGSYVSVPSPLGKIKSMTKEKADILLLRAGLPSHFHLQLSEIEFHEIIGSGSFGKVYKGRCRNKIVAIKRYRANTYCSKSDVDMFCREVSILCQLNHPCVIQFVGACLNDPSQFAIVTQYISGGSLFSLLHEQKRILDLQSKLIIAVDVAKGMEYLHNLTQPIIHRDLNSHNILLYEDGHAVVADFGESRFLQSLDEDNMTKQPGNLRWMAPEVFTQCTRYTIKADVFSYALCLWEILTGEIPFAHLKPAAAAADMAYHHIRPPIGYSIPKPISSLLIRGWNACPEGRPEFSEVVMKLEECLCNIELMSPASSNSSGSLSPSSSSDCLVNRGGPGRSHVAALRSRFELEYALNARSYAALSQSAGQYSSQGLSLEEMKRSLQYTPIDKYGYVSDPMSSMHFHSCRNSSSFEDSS

[36] = target: Mitogen-activated protein kinase kinase kinase 11 (Homo sapiens) (UniProt Q16584); details: Compound concentration 1000.0 nM
Chain of Mitogen-activated protein kinase kinase kinase 11 (Homo sapiens) (Q16584 whole entry, looked up): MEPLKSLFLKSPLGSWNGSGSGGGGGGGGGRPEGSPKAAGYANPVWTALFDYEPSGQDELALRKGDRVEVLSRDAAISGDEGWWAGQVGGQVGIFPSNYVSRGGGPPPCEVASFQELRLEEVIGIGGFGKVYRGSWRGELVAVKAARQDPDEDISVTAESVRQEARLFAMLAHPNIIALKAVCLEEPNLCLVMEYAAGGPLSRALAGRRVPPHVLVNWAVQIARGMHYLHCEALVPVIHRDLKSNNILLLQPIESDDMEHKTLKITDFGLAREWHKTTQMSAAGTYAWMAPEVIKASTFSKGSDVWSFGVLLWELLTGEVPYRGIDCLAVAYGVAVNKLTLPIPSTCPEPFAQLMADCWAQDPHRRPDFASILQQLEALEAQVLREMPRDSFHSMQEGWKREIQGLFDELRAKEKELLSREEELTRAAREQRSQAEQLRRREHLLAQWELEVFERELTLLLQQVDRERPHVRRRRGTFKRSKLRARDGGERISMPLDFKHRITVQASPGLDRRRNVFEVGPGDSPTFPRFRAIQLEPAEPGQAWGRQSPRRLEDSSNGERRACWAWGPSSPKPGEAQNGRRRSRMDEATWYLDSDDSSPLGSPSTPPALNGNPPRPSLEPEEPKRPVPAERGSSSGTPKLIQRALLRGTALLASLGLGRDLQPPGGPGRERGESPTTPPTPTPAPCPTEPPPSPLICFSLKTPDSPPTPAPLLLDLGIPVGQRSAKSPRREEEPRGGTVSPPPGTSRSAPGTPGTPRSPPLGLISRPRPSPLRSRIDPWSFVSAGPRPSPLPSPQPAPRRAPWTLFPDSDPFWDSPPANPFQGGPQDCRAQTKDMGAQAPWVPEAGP

[37] = target: Homeodomain-interacting protein kinase 4 (Homo sapiens) (UniProt Q8NE63); details: Compound concentration 1000.0 nM
[38] = target: Serine/threonine-protein kinase PAK 4 (Homo sapiens) (UniProt O96013); details: Compound concentration 1000.0 nM
[39] = target: Serine/threonine-protein kinase NLK (Homo sapiens) (UniProt Q9UBE8); details: Compound concentration 1000.0 nM
[40] = target: Serine/threonine-protein kinase Sgk2 (Homo sapiens) (UniProt Q9HBY8); details: Compound concentration 1000.0 nM
[41] = target: Interleukin-1 receptor-associated kinase 4 (Homo sapiens) (UniProt Q9NWZ3); details: Compound concentration 1000.0 nM
[42] = target: Tyrosine-protein kinase Tec (Homo sapiens) (UniProt P42680); details: Compound concentration 1000.0 nM
[43] = target: Histamine H4 receptor (Homo sapiens) (UniProt Q9H3N8); details: Compound concentration 10.0 uM
Chain of Histamine H4 receptor (Homo sapiens) (Q9H3N8 whole entry): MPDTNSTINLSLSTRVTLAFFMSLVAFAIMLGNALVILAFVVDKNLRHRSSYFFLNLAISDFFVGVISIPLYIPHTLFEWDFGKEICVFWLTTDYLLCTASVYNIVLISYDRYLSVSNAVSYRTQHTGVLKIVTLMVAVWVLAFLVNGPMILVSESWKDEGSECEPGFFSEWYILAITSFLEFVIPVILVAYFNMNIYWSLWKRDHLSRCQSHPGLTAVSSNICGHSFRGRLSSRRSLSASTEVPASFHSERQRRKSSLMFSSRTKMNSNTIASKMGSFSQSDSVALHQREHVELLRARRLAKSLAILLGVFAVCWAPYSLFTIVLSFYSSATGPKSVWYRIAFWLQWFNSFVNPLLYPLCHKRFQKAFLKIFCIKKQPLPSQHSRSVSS

[44] = target: Serine/threonine-protein kinase Chk2 (Homo sapiens) (UniProt O96017); details: Compound concentration 1000.0 nM

Chain of Serine/threonine-protein kinase Nek7 (Homo sapiens) (Q8TDX7 whole entry, looked up): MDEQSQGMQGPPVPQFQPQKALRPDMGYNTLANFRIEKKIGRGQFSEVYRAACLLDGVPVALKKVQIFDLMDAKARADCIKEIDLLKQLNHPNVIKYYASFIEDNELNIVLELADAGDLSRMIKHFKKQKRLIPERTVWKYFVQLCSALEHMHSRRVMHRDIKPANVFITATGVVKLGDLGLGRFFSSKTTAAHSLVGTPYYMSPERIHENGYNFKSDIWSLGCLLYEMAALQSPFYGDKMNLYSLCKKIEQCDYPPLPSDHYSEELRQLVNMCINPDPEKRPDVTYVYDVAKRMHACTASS

CC(=O)C1=C(C)N(c2cccc(C(F)(F)F)c2)C(=O)N[C@@H]1c1ccc(C#N)nc1 [BAY-678]
inactive: residual activity [1] 100% | residual activity [2] 100% | residual activity [3] 90.8% | residual activity [4] 85.7% | residual activity [5] 100% | residual activity [6] 94.1% | residual activity [7] 80.9% | residual activity [8] 100% | residual activity [9] 100% | residual activity [10] 90.8% | residual activity [11] 100% | residual activity [12] 89.2% | residual activity [13] 100% | residual activity [14] 70.5% | inhibition [15] -0.342% | residual activity [16] 100% | residual activity [17] 89% | inhibition [18] -2.88% | residual activity [19] 100% | residual activity [20] 93.7% | residual activity [21] 90.6% | inhibition [22] 3.11% | inhibition [23] -6.78% | residual activity [24] 75.6% | residual activity [25] 100% | residual activity [26] 72% | residual activity [27] 100% | residual activity [28] 100% | residual activity [29] 80.7% | residual activity [30] 79.4% | residual activity [31] 100% | residual activity [32] 90.6% | residual activity [33] 91.7% | residual activity [34] 87.7% | inhibition (Rattus norvegicus) 20% | residual activity [35] 99.7% | residual activity [36] 100% | residual activity [37] 100% | residual activity [38] 97.9% | residual activity [39] 93% | residual activity [40] 100% | residual activity [41] 100% | residual activity [42] 100% | inhibition [43] 25.9% | residual activity [44] 85.6%
